Experimental data reported in the supplement of paper PMC10307832.

Experiments:
Test in all cases: relative viability (nuclei count vs DMSO), 5 days (fraction); higher = more cells survive
IMD-0354 + OSI-027 = compound: O=C(Nc1cc(C(F)(F)F)cc(C(F)(F)F)c1)c1cc(Cl)ccc1O [IMD-0354] + COc1cccc2cc(-c3nc([C@H]4CC[C@H](C(=O)O)CC4)n4ncnc(N)c34)[nH]c12 [OSI-027] (partner 0.5 µM)
How it was run: (§1)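 The day after seeding in 1536-well plates, lung cancer cell lines were treated by pin tool with a single drug, or with a fixed anchor-drug dose together with five library-drug doses (not always all listed) in √10 steps. After 5 days, a combined fix-and-stain solution (final 0.05% Triton X-100, 1% formaldehyde, 1 ug/ml Hoechst) was added. Nuclei counted on 4× images gave relative viability as treated counts over vehicle counts, reported as the median of duplicate plates.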

CX-5461 + Luminespib = compound: Cc1cnc(CNC(=O)c2c(=O)c3ccc(N4CCCN(C)CC4)nc3n3c2sc2ccccc23)cn1 [CX-5461] + CCNC(=O)c1noc(-c2cc(C(C)C)c(O)cc2O)c1-c1ccc(CN2CCOCC2)cc1 [Luminespib] (partner 0.01 µM)
How it was run: as §1

CX-5461 + Pictilisib = compound: Cc1cnc(CNC(=O)c2c(=O)c3ccc(N4CCCN(C)CC4)nc3n3c2sc2ccccc23)cn1 [CX-5461] + CS(=O)(=O)N1CCN(Cc2cc3nc(-c4cccc5[nH]ncc45)nc(N4CCOCC4)c3s2)CC1 [Pictilisib] (partner 1 µM)
How it was run: as §1

IMD-0354 + AZD7762 = compound: O=C(Nc1cc(C(F)(F)F)cc(C(F)(F)F)c1)c1cc(Cl)ccc1O [IMD-0354] + NC(=O)Nc1cc(-c2cccc(F)c2)sc1C(=O)N[C@H]1CCCNC1 [AZD7762] (partner 0.2 µM)
How it was run: as §1

Cell Line	relative viability (IMD-0354 + OSI-027; first compound 0.04 µM)	relative viability (IMD-0354 + OSI-027; first compound 0.1265 µM)	relative viability (IMD-0354 + OSI-027; first compound 0.4 µM)	relative viability (IMD-0354 + OSI-027; first compound 1.265 µM)	relative viability (IMD-0354 + OSI-027; first compound 4 µM)	relative viability (CX-5461 + Luminespib; first compound 0.01 µM)	relative viability (CX-5461 + Luminespib; first compound 0.03162 µM)	relative viability (CX-5461 + Luminespib; first compound 0.1 µM)	relative viability (CX-5461 + Luminespib; first compound 0.3162 µM)	relative viability (CX-5461 + Luminespib; first compound 1 µM)	relative viability (CX-5461 + Pictilisib; first compound 0.01 µM)	relative viability (CX-5461 + Pictilisib; first compound 0.03162 µM)	relative viability (CX-5461 + Pictilisib; first compound 0.1 µM)	relative viability (CX-5461 + Pictilisib; first compound 0.3162 µM)	relative viability (CX-5461 + Pictilisib; first compound 1 µM)	relative viability (IMD-0354 + AZD7762; first compound 0.04 µM)	relative viability (IMD-0354 + AZD7762; first compound 0.1265 µM)	relative viability (IMD-0354 + AZD7762; first compound 0.4 µM)	relative viability (IMD-0354 + AZD7762; first compound 1.265 µM)	relative viability (IMD-0354 + AZD7762; first compound 4 µM)
HCC-15	0.656	0.615	0.366	0.164	0.131	0.236	0.331	0.305	0.359	0.216	0.753	0.933	0.749	0.239	0.495	1.07	1.13	0.923	0.648	0.157
HCC-44	0.556	0.562	0.334	0.285	0.215	1.11	1.26	0.714	0.834	0.208	0.584	0.877	0.492	0.644	0.43	0.988	1.01	1.01	0.855	0.314
HCC-827	0.67	0.693	0.621	0.225	0.196	0.875	0.69	0.921	0.588	0.791	1.16	0.912	1	0.87	1.12	0.204	0.239	0.215	0.183	0.153
HOP-62	0.954	0.782	0.516	0.295	0.204	0.849	0.921	0.905	0.973	0.917	0.592	1.16	0.727	0.167	0.623	0.741	0.977	0.473	0.327	0.176
LC-2-ad	0.827	0.852	0.441	0.298	0.193	0.981	1.04	0.869	0.925	0.424	0.431	0.51	0.516	0.502	0.334	0.902	0.85	0.504	0.15	0.24
LCLC-97TM1	0.519	0.489	0.265	0.186	0.148	0.865	0.84	0.889	–	0.703	0.179	0.172	0.188	–	0.204	0.315	0.449	0.222	0.185	0.128
LCLC-103H	0.592	0.471	0.375	0.295	0.196	1.03	1.08	1.01	1.14	0.975	0.588	0.611	0.603	0.483	0.619	0.952	0.907	0.554	0.47	0.257
LK-2	0.193	0.198	0.235	0.19	0.215	0.173	0.214	0.199	–	0.212	–	0.623	0.652	–	0.492	0.251	0.39	–	0.105	0.172
LOU-NH91	0.77	0.692	0.335	0.27	0.198	0.411	0.354	0.303	–	0.323	0.57	0.497	0.528	0.452	0.486	0.827	0.672	0.284	0.151	0.266
LU99A	0.351	0.286	0.246	0.259	0.196	0.187	0.218	0.235	0.241	0.242	0.296	0.312	0.271	0.289	0.173	0.246	0.393	0.332	0.185	0.151
LXF-289	0.871	0.772	0.492	0.34	0.115	0.627	0.798	0.823	0.732	0.662	0.789	0.922	0.805	0.72	0.435	1.07	1.09	0.866	0.345	0.133
NCI-H23	0.538	0.631	0.341	0.195	0.19	0.212	0.234	0.197	0.234	0.214	0.449	0.501	0.488	0.292	0.362	0.252	0.253	0.229	0.13	0.222
NCI-H322M	0.612	0.493	0.427	0.285	0.33	1.08	0.799	0.798	0.469	0.402	0.578	0.535	0.575	–	0.464	0.566	0.548	0.48	0.268	0.479
NCI-H358	0.676	0.826	0.403	0.124	0.141	0.317	0.42	0.327	0.358	0.371	0.29	0.323	0.249	0.19	0.316	0.591	0.433	0.384	0.245	0.255
NCI-H441	0.593	0.604	0.329	0.169	0.231	0.322	0.421	0.323	0.444	0.239	0.376	0.515	0.505	0.382	0.339	1.4	1.31	0.664	0.24	0.293
NCI-H460	0.886	0.626	0.225	0.0286	0.0262	0.0291	0.0347	–	0.041	0.0205	0.462	0.338	0.366	0.108	0.2	0.649	0.756	0.301	0.0985	0.0595
